Source: patent publication US20250177408A1, “INHIBITOR OF INTERACTION BETWEEN YAP/TAZ AND TEAD, PREPARATION THEREOF, PHARMACEUTICAL COMPOSITION THEREOF AND USE THEREOF” (ETERN BIOPHARMA (SHANGHAI) CO., LTD., priority 2022, published 2025)
Read-outs that look alike come from different tables or passages of the source.

Legend:
[1] = target: YAP-TEAD protein interaction (His-TEAD1 (209-426) protein, Bio-YAP peptide (60-100)) (Homo sapiens, UniProt P28347); assay: YAP-TEAD protein interaction HTRF experiment; assay type: binding; conditions: His-TEAD1 (209-426) 10 nM, Bio-YAP peptide 50 nM, read-out: Activity of each compound in blocking YAP-TEAD protein interaction (grades of IC50 values)
How it was run: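 His-TEAD1 (209-426) at 10 nM final was preincubated 20 min at RT with compounds (10-point 3-fold dilutions, duplicates, 1% DMSO), then Bio-YAP peptide, 10 min. Anti-His-Eu cryptate/streptavidin-XL665 added for 1 h at RT; HTRF read at ex 320 nm, Em665/Em620 ratio ×10000, IC50 from % inhibition.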

MSTO-211H cells = assay: Cell proliferation inhibition experiment (CellTiter-Glo); assay type: cell-based; conditions: 96 hours, read-out: Inhibitory activity of each compound on the proliferation of MSTO-211H cells (grades of IC50 values)
How it was run: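 MSTO-211H cells (1500/well, RPMI1640 + 10% FBS) were plated overnight at 37° C, 5% CO2, then exposed in duplicate to 9 three-fold compound dilutions (DMSO ≤0.5% final) for 96 hours. Viability was read as CellTiter-Glo luminescence after 10 min at room temperature. IC50 was derived from inhibition of the CTG signal.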

YAP/TEAD reporter gene = YAP/TEAD reporter gene inhibition experiment in SF268-YAP-Luc cells; assay type: cell-based; conditions: SF268-YAP-Luc cells, 24 hours, Renila luciferase signal corrected for cell viability; read-out: Activity of each compound in inhibiting the expression of YAP/TEAD reporter gene (grades of IC50 values)
Protocol: In this example, the inhibition of the compound on the target was detected by the signal of the reporter gene in the stable cell line SF268-YAP-Luc containing the YAP/TEAD reporter gene.
A sequence containing 6 tandem YAP/TEAD binding sites and a basal transcription promoter was constructed on the vector pGL4.76 of Promega Company. The constructed reporter gene vector was transfected into SF268 cells (NCI DCTD tumor/cell line repository) and screened with 0.5 μg/mL hygromycin to obtain SF268-YAP-Luc stable strain.
SF268-YAP-Luc cells were seeded into a 96-well plate at a density of 3000 cells per well with a volume of 100 μL per well (cell culture medium composition: RPMI1640 (Gibco-A10491-01)+10% FBS (Gibco-10099-141C)+1% penicillin-streptomycin (5,000 U/mL, Gibco-15070-063)), and the cells were incubated overnight in a 37° C., 5% carbon dioxide incubator.
On the next day, the compounds to be tested were 3-fold diluted, and a total of 8 concentration gradients were set up; a certain volume of DMSO or the compounds to be tested was added to each well, respectively, and 2 replicates were set up for each concentration, and the final concentration of DMSO was controlled to be no higher than 0.5%. The cells were incubated for 24 hours in a 37° C., 5% carbon dioxide incubator. Two identical parallel plates were set up for cell seeding and compound treatment.
Renila-Glo luciferase assay system kit (Promega, E2720) was used to detect the reporter gene signals of the control group and treatment group. 70 μL of Renila-Glo was added to each well, mixed well, and incubated at room temperature for 10 minutes. The signal was read using EnVision® Multilabel Plate Reader (Perkin Elmer).
Cell viability was detected in the control group and treatment group using CellTiter-Glo Luminescent Cell Viability Assay kit (Promega, G7570). 50 μL of CellTiter-Glo was added to each well, mixed well, and incubated at room temperature for 10 minutes. The signal was read using En Vision® Multilabel Plate Reader (Perkin Elmer).
The signal of Renila luciferase after correcting for cell viability was analyzed, and the inhibition rate of the compound on the reporter gene was calculated. The inhibition percentage (%) is calculated by the following formula: […]
Using Graphpad Prism software, the IC50 values for the compounds' inhibitory activity against Renila luciferase signaling were calculated.

YAP-TEAD protein interaction (His-TEAD1 (209-426) protein, Bio-YAP peptide (60-100)), sequence (P28347 209-426): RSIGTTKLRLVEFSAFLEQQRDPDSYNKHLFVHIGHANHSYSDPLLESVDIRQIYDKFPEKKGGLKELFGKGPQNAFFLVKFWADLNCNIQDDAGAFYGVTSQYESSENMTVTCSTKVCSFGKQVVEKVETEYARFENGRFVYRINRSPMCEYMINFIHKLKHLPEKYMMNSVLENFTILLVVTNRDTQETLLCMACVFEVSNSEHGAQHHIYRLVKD

Row | IC50 [1] | Compound | IC50 (MSTO-211H cells; Homo sapiens) | IC50 (MSTO-211H cells) | IC50 (YAP/TEAD reporter gene)
1 | < 50 nM | [2H]C1([2H])CC[C@]([2H])([C@@]2(c3ccccc3)Cc3c(cc(F)c(Cl)c3-c3c(C(=O)NC)cc4c(c3F)Oc3c(cnn(CCC(F)(F)F)c3=O)O4)O2)N1 (atropisomer, axis not shown) [Compound 159, (S)-8-((S)-5-Chloro-6-fluoro-2-phenyl-2-((S)-pyrrolidin-2-yl-2,5,5-d3)-2,3-dihydrobenzofuran-4-yl)-9-fluoro-N-methyl-1-oxo-2-(3,3,3-trifluoropropyl)-1,2-dihydroxybenzo [5,6][1,4]dioxo [2,3-d]pyridazine-7-carboxamide] | < 200 nM |  | 
2 | < 50 nM | O=C(NC1CC1)c1cc2c(c(F)c1-c1c(Cl)c(F)cc3c1C[C@](c1ccccc1)([C@@H]1CCCN1)O3)Oc1c(cnn(CC(F)F)c1=O)O2 (atropisomer, axis not shown) [Compound 160] | < 200 nM |  | 
3 | < 50 nM | CNC[C@@]1(c2ccccc2)Cc2c(cc(F)c(Cl)c2-c2c(C(N)=O)cn3cc(C)nc3c2F)O1 (atropisomer, axis not shown) [Compound I-16, (S)-7-((S)-5-Chloro-6-fluoro-2-((methylamino)methyl)-2-phenyl-2,3-dihydrobenzofuran-4-yl)-8-fluoro-2-methylimidazo[1,2-a]pyridine-6-carboxamide] | < 200 nM |  | 
4 | < 50 nM | CNC[C@@]1(c2ccccc2)Cc2c(cc(F)c(Cl)c2-c2c(C(N)=O)cc3c(c2F)OCCN3)O1 (atropisomer, axis not shown) [Compound I-17, (S)-7-((S)-5-Chloro-6-fluoro-2-((methylamino)methyl)-2-phenyl-2,3-dihydrobenzofuran-4-yl)-8-fluoro-3,4-dihydro-2H-benzo[b][1,4]oxazine-6-carboxamide] | < 200 nM |  | 
5 | < 50 nM | Cn1ncc2c(F)c(-c3c(Cl)c(F)cc4c3C[C@](c3ccccc3)([C@@H]3CCCN3)O4)c(C(N)=O)cc21 (atropisomer, axis not shown) [Compound I-28, (S)-5-((S)-5-Chloro-6-fluoro-2-phenyl-2-((S)-pyrrolidin-2-yl)-2,3-dihydrobenzofuran-4-yl)-4-fluoro-1-methyl-1H-indazole-6-carboxamide] | < 200 nM |  | 
6 | < 50 nM | CCC(=O)N1CCOc2c1cc(C(N)=O)c(-c1c(Cl)c(F)cc3c1C[C@](c1ccccc1)([C@@H]1CCCN1)O3)c2F (atropisomer, axis not shown) [Compound I-29, (S)-7-((S)-5-Chloro-6-fluoro-2-phenyl-2-((S)-pyrrolidin-2-yl)-2,3-dihydrobenzofuran-4-yl)-8-fluoro-4-propionyl-3,4-dihydro-2H-benzo[b][1,4]oxazine-6-carboxamide] | 200 to 500 nM |  | 
7 | < 50 nM | NC(=O)c1cc2cn[nH]c2c(F)c1-c1c(Cl)c(F)cc2c1C[C@](c1ccccc1)([C@@H]1CCCN1)O2 (atropisomer, axis not shown) [Compound I-30, (S)-6-((S)-5-Chloro-6-fluoro-2-phenyl-2-((S)-pyrrolidin-2-yl)-2,3-dihydrobenzofuran-4-yl)-7-fluoro-1H-indazole-5-carboxamide] | 200 to 500 nM |  | 
8 | < 50 nM | NC(=O)c1cc2c(c(F)c1-c1c(Cl)c(F)cc3c1C[C@](c1ccccc1)([C@@H]1CCCN1)O3)Oc1nnccc1O2 [Compound 71, (S)-8-((S)-5-Chloro-6-fluoro-2-phenyl-2-((S)-pyrrolidin-2-yl)-2,3-dihydrobenzofuran-4-yl)-9-fluorobenzo[5,6][1,4]dioxo[2,3-c]pyridazine-7-carboxamide] |  | 200 to 500 nM | 
9 | < 50 nM | NC(=O)c1cc2c(c(F)c1-c1c(Cl)c(F)cc3c1C[C@](c1ccccc1)([C@@H]1CCCN1)O3)Oc1ccnnc1O2 [Compound 103, (S)-7-((S)-5-Chloro-6-fluoro-2-phenyl-2-((S)-pyrrolidin-2-yl)-2,3-dihydrobenzofuran-4-yl)-6-fluorobenzo[5,6][1,4]dioxo[2,3-c]pyridazine-8-carboxamide] |  | 500 to 5000 nM | 
10 | < 50 nM | NC(=O)c1cc2c(c(F)c1-c1c(Cl)c(F)cc3c1C[C@](c1ccccc1)([C@@H]1CCCN1)O3)Oc1ncccc1C2O (stereo partly drawn) [Compound 104, (S)-8-((S)-5-Chloro-6-fluoro-2-phenyl-2-((S)-pyrrolidin-2-yl)-2,3-dihydrobenzofuran-4-yl)-9-fluoro-5-hydroxy-5H-benzo[2,3-b]pyridine-7-carboxamide] | 200 to 500 nM |  | 
11 | < 50 nM | Cn1ncc2c(c1=O)Oc1cc(C(N)=O)c(-c3c(Cl)c(F)cc4c3CC(c3ccccc3)(C3CCCN3)O4)c(F)c1O2 [Compound 106, (S)-8-((S)-5-Chloro-6-fluoro-2-phenyl-2-((S)-pyrrolidin-2-yl)-2,3-dihydrobenzofuran-4-yl)-9-fluoro-3-methyl-4-oxo-3,4-dihydrobenzo[5,6][1,4]dioxo[2,3-d]pyridazine-7-carboxamide] | 200 to 500 nM |  | 
12 | < 50 nM | NC(=O)c1cc2c(c(F)c1-c1c(Cl)c(F)cc3c1C[C@](c1ccccc1)([C@@H]1CCCN1)O3)Oc1c(cnn(C3CC3)c1=O)O2 [Compound 111, (S)-8-((S)-5-Chloro-6-fluoro-2-phenyl-2-((S)-pyrrolidin-2-yl)-2,3-dihydrobenzofuran-4-yl)-2-cyclopropyl-9-fluoro-1-oxo-1,2-dihydrobenzo[5,6][1,4]dioxo[2,3-d]pyridazine-7-carboxamide] |  | < 200 nM | 
13 | < 50 nM | NC(=O)c1cc2c(c(F)c1-c1c(Cl)c(F)cc3c1C[C@](c1ccccc1)([C@@H]1CCCN1)O3)Oc1cnn(C3CC3)c(=O)c1O2 [Compound 112, (S)-8-((S)-5-Chloro-6-fluoro-2-phenyl-2-((S)-pyrrolidin-2-yl)-2,3-dihydrobenzofuran-4-yl)-3-cyclopropyl-9-fluoro-4-oxo-3,4-dihydrobenzo[5,6][1,4]dioxo[2,3-d]pyridazine-7-carboxamide] |  | 200 to 500 nM | 
14 | < 50 nM | CNC(=O)c1cc2c(c(F)c1-c1c(Cl)c(F)cc3c1CC(c1ccccc1)(C1CCCN1)O3)Oc1c(cnn(C)c1=O)O2 [Compound 124, (S)-8-((S)-5-Chloro-6-fluoro-2-phenyl-2-((S)-pyrrolidin-2-yl)-2,3-dihydrobenzofuran-4-yl)-9-fluoro-N,2-dimethyl-1-oxo-1,2-dihydrobenzo[5,6][1,4]dioxo[2,3-d]pyridazine-7-carboxamide] | < 200 nM |  | 
15 | < 50 nM | Cn1cnc2c(c1=O)Oc1c(cc(C(N)=O)c(-c3c(Cl)c(F)cc4c3CC(c3ccccc3)(C3CCCN3)O4)c1F)O2 [Compound 126, (S)-7-((S)-5-Chloro-6-fluoro-2-phenyl-2-((S)-pyrrolidin-2-yl)-2,3-dihydrobenzofuran-4-yl)-6-fluoro-3-methyl-4-oxo-3,4,7,8-tetrahydrobenzo[5,6][1,4]dioxo[2,3-d]pyrimidine-8-carboxamide] | < 200 nM |  | 
16 | < 50 nM | NC(=O)c1cc2c(c(F)c1-c1c(Cl)c(F)cc3c1CC(c1ccccc1)(C1CCCN1)O3)OCCN2 [Compound I-19, (S)-7-((S)-5-Chloro-6-fluoro-2-phenyl-2-((S)-pyrrolidin-2-yl)-2,3-dihydrobenzofuran-4-yl)-8-fluoro-3,4-dihydro-2H-benzo[b][1,4]oxazine-6-carboxamide] |  |  | < 50 nM
17 | < 50 nM | (S)-8-((S)-5-Chloro-6-fluoro-2-phenyl-2-((S)-pyrrolidin-2-yl)-2,3-dihydrobenzofuran-4-yl)-9-fluoro-3-methyl-4-oxo-3,4-dihydrobenzo[5,6][1,4]dioxo[2,3-d]pyrimidine-7-carboxamide [Compound 127] |  | 200 to 500 nM | 
